Reference: patent publication US8003684B2, “Crystal form and pharmaceutical compositions of (+)-R-zileuton” (Cornerstone Therapeutics, Inc., priority 2006, dated 2011)

Test: Moisture sorption/desorption analysis
Format: physicochemical
Description: The profiles show the change in weight of a sample containing Form I as the relative humidity (herein referred to as “RH”) of the environment is changed between 5% and 95% at a 10% RH interval. […] The vapor sorption/desorption profiles indicate that Form I is non-hygroscopic. Moisture sorption/desorption data were collected on a VTI SGA-100 Vapor Sorption Analyzer, calibrated using sodium chloride and polyvinylpyrrolidone as calibration standards. Sorption and desorption data were collected over a range of 5% to 95% relative humidity (RH) at 10% RH interval under a nitrogen purge. Samples were not dried prior to analysis. Equilibrium criteria used for analysis were less than 0.0100% weight change in 5 minutes, with a maximum equilibration time of 3 hours if the weight criterion was not met. Data were not corrected for the initial moisture content of the sample.

weight change in adsorption profile (RH below 40%, FIG. 3): essentially no weight change
hygroscopicity from vapor sorption/desorption profiles (RH between 5% and 95%): non-hygroscopic
weight gain in adsorption profile (steady gain from RH 40% until RH reaches 95%, 10% RH interval, FIG. 3): approximately 2%
SMILES: C[C@H](c1cc2ccccc2s1)N(O)C(N)=O [Form I, (+)-R-zileuton]
